Holding throughout (assay type): ADME, cell-free
The nature of data set [1]: Binding affinity to Hb in rat plasma by SDS-PAGE analysis.
Data set [2] in a line: Binding affinity to Hb in rat plasma at 1.5 x 10' -5 to 2.8 x 10' -5 mmol/l by CD spectroscopy.
Data set [3] can be described thus: Plasma protein binding in rat at 816 ug/ml by ultrafiltration method. The note with it: read-out: PPB (converted).
A short description of data set [4]: Binding affinity to Hb in rat plasma at 2.5 x 10' -6 to 15 x 10' -6 mmol/l by fluorescence emission spectroscopy.
Data set [5] can be described thus: Plasma protein binding in rat at 1020 ug/ml by ultrafiltration method. To be noted: read-out: PPB (converted).
A short description of data set [6]: Plasma protein binding in rat at 408 ug/ml by ultrafiltration method. To be noted: read-out: PPB (converted).

We go through 1 compound from ChEMBL document CHEMBL3352015, “The binding mechanisms of plasma protein to active compounds in Alismaorientale rhizomes (Alismatis Rhizoma)” (Bioorg Med Chem Lett, 2014).

Each structure is given as a SMILES string.

Take `CC(=O)O[C@H]([C@@H](O)C[C@@H](C)C1=C2C[C@H](O)[C@H]3[C@@]4(C)CCC(=O)C(C)(C)[C@@H]4CC[C@]3(C)[C@@]2(C)CC1)C(C)(C)O`: the result in data set [1], in data set [2] and in data set [4] was Active. Besides, the fraction unbound at 816 ug/ml in data set [3] was 0.29. Moreover, in data set [5], the fraction unbound at 1020 ug/ml is 0.279. Also, in data set [6], the fraction unbound at 408 ug/ml was 0.3.
